The record followed here is patent publication US20250114326A1, “POLAR MARINE-DERIVED MACROCYCLIC LACTAM COMPOUND, AND PREPARATION METHOD THEREFOR AND USE THEREOF” (RENJI HOSPITAL, SCHOOL OF MEDICINE, SHANGHAI JIAO TONG …, priority 2021, published 2025).

The subject of this assay is inflammatory cytokine IL-6. Kind of assay: Inhibition of cytokine IL-6 in PMA-differentiated, LPS-treated THP-1 cells (Cytometric Bead Array, flow cytometry). The format is cell-based, human. To be noted: PMA 160 nM 36 h, compound 2 h then LPS 24 h, IL-6 in culture solution by CBA, read-out: Half maximal inhibitory concentration (IC50) value on inflammatory cytokine IL-6. As for the experimental part:
Culture of THP-1 cells and treatment of THP-1 cells with test compounds in combination with LPS
THP-1 cells (from the Cell Bank of the Chinese Academy of Sciences) were cultured in RPMI-1640 medium containing 10% FBS in a 5% CO2 incubator at 37° C. 100 μL of a cell suspension in a complete culture medium containing antibiotics (100 μg/mL streptomycin and 100 U/mL penicillin) and PMA (final concentration: 160 nM) was added to each well in a 96-well plate (about 5×10^4 cells/well). After 36 h of treatment, the cells achieved adherent growth.
The PMA-containing medium was discarded and then the cells were washed with 1×PBS solution. Serum-free RPMI-1640 (2 mL) was added and the cells were treated for 12 h. The active compounds to be tested were diluted into five concentration gradients and added to each well for a 2-hour treatment. The culture solutions containing the compounds were retained and the cells were treated with a serum-free medium ([…]) containing LPS (1 mg/mL) for 24 h.
The content assay for cytokine IL-6 in the culture solution was performed according to the Human Inflammation Cytometric Bead Array (CBA) method in the manufacturer's instructions. After the above-mentioned cytokine levels were determined on the FACSCalibur flow cytometer, the FCAP Array software was used to analyze the results.

Read-outs that look alike come from different tables or passages of the source.

With `CC[C@H](C)C[C@]1(O)C(=O)C[C@@H](O)[C@@]2(C)C=C(C)[C@H](O2)/C(C)=C/C(C)=C/C[C@@H](CO)OC(=O)[C@H](OC)[C@@H](O)CNC1=O` [Compound 1, Somalactam A], under “Homo sapiens”, the IC50 is 10.54 ± 0.06 µM.
Regarding `CC[C@H](C)C[C@@]1(O)C(=O)NC[C@H](O)[C@@H](OC)C(=O)OC[C@@H](O)C/C=C(\C)[C@H]2C(C)=C[C@]3(C)O[C@@H]4C[C@@]1(O)O[C@]4(C)[C@H]23` [Compound 2, Somalactam B], under “Homo sapiens”, the IC50 worked out at 11.1 ± 0.13 µM.
Consider `CC[C@H](C)C[C@@]1(O)C(=O)NC[C@H](O)[C@@H](OC)C(=O)O[C@H](CO)C/C=C(\C)[C@@H]2C(C)=C[C@@]3(C)O[C@@H]4C[C@@]1(O)O[C@]4(C)[C@@H]23` [Compound 3, Somalactam C], for which the IC50 (Homo sapiens) was 5.76 ± 1.18 µM.
With `CC[C@H](C)C[C@@]1(O)C(=O)NC[C@H](O)[C@@H](OC)C(=O)O[C@@H]2CO[C@]3(C)C=C(C)[C@@H](/C(C)=C/[C@@]4(C)O[C@]1(O)C[C@H]4O)[C@@H]3C2` [Compound 4, Somalactam D], the IC50 (Homo sapiens) amounted to 9.12 ± 0.15 µM.
As to Tocilizumab [reference compound], the IC50 came to 9.22 ± 0.12 µM. Further, the IC50 (listed as control drug) amounted to 6.02 ± 0.12 µM.
